Test results as given in PubChem BioAssay AID256 (DTP/NCI, 2004).
Several values for one entry are separate records, joined by “and”; a condition that tells them apart may be missing. Identical values can stand only once. Toxic doses and inconclusive results are not listed. How the source made its calls: active means survival T/C of 150% or more; inactive means T/C below 125% in these data. Residues, ends and D or L forms follow the SMILES beside them. *: point of attachment. Cbz = O=C(OCc1ccccc1)*

System: CD2F1 mice, L1210 leukemia ip, survival T/C
Experiment: NCI In Vivo Anticancer Drug Screen. Data for tumor model L1210 Leukemia (intraperitoneal) in CD2F1 (CDF1) mice
Conditions: higher = longer survival
In short: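 Read-out first: treated-group measurement over vehicle-control measurement, expressed as a ratio. Animals bore a transplanted tumor line and were dosed with compound or vehicle.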

[1] = endpoint: mean survival time, dose: 5.0 mg/kg/injection, schedule: Q01DX009 (ip), vehicle: saline with Tween-80
[2] = endpoint: mean survival time, dose: 10.0 mg/kg/injection, schedule: Q01DX009 (ip), vehicle: saline with Tween-80
[3] = endpoint: mean survival time, dose: 20.0 mg/kg/injection, schedule: Q01DX009 (ip), vehicle: saline with Tween-80
[4] = endpoint: mean survival time, dose: 25.0 mg/kg/injection, schedule: Q01DX009 (ip), vehicle: saline with Tween-80
[5] = endpoint: mean survival time, dose: 50.0 mg/kg/injection, schedule: Q01DX009 (ip), vehicle: saline with Tween-80
[6] = endpoint: mean survival time, dose: 100.0 mg/kg/injection, schedule: Q01DX009 (ip), vehicle: saline with Tween-80
[7] = endpoint: mean survival time, dose: 100.0 mg/kg/injection, schedule: Q04DX003 (ip), vehicle: saline with Tween-80
[8] = endpoint: mean survival time, dose: 200.0 mg/kg/injection, schedule: Q04DX003 (ip), vehicle: saline with Tween-80
[9] = endpoint: mean survival time, dose: 400.0 mg/kg/injection, schedule: Q04DX003 (ip), vehicle: saline with Tween-80
[10] = endpoint: mean survival time, dose: 100.0 mg/kg/injection, schedule: Q01DX001 (ip), vehicle: saline
[11] = endpoint: mean survival time, dose: 200.0 mg/kg/injection, schedule: Q01DX001 (ip), vehicle: saline
[12] = endpoint: mean survival time, dose: 400.0 mg/kg/injection, schedule: Q01DX001 (ip), vehicle: saline

Measured: T/C

CCCCCCCCCC1=NC(C)(C)CN1CC(C)O (configuration not stated)
inactive: [1] 91 % of control | [2] 102 % of control | [3] 91 % of control

O=[N+]([O-])c1ccc(SSC(Cl)(Cl)Cl)cc1
inactive: endpoint: mean survival time, dose: 6.25 mg/kg/injection, schedule: Q01DX009 (ip), vehicle: saline with Tween-80 101 % of control | endpoint: mean survival time, dose: 12.5 mg/kg/injection, schedule: Q01DX009 (ip), vehicle: saline with Tween-80 101 % of control | [4] 101 % of control | [5] 100 % of control

CCOC1(OCC)C2C=CC1C1C(=O)OC(=O)C12 (configuration not stated)
inactive: endpoint: mean survival time, dose: 75.0 mg/kg/injection, schedule: Q01DX001 (ip), vehicle: saline 103 % of control | endpoint: mean survival time, dose: 150.0 mg/kg/injection, schedule: Q01DX001 (ip), vehicle: saline 108 % of control | endpoint: mean survival time, dose: 300.0 mg/kg/injection, schedule: Q01DX001 (ip), vehicle: saline 102 % of control

CC(C)(C)CC(C)(C)c1ccc(OCCOC(=O)c2ccccc2C(=O)O)cc1
inactive: endpoint: mean survival time, dose: 100.0 mg/kg/injection, schedule: Q01DX001 (ip), vehicle: Klucel (hydroxypropylcellulose) (HPC) 90 % of control

CCOC(=O)c1ccc(Cl)cc1
inactive: [4] 101 % of control | [5] 102 % of control | [6] 95 % of control

c1ccc(-c2c3ccccc3c(-c3ccccc3)c3c2ccc2ccccc23)cc1
inactive: endpoint: mean survival time, dose: 6.25 mg/kg/injection, schedule: Q01DX009 (ip), vehicle: Klucel (hydroxypropylcellulose) (HPC) 89 % of control | endpoint: mean survival time, dose: 12.5 mg/kg/injection, schedule: Q01DX009 (ip), vehicle: Klucel (hydroxypropylcellulose) (HPC) 89 % of control | endpoint: mean survival time, dose: 25.0 mg/kg/injection, schedule: Q01DX009 (ip), vehicle: Klucel (hydroxypropylcellulose) (HPC) 91 % of control

Oc1c(Cl)c(Cl)c(Cl)c2ccccc12
inactive: [7] 100 % of control | [8] 97 % of control | [9] 100 % of control

COc1cc(CO)ccc1OCc1ccccc1
inactive: [7] 98 % of control | [8] 96 % of control | [9] 105 % of control

O=C(O)CNC(=O)CNC(=O)CNC(=O)OCc1ccccc1 (Cbz-Gly-Gly-Gly-OH)
inactive: [7] 96 % of control | [8] 100 % of control | [9] 97 % of control

CN(C)C(C)(CO)CO
inactive: [10] 98 % of control | [11] 98 % of control | [12] 113 % of control

ICC12CCC1(CI)COC2 (configuration not stated)
inactive: endpoint: mean survival time, dose: 100.0 mg/kg/injection, schedule: Q04DX003 (ip), vehicle: saline 96 % of control | endpoint: mean survival time, dose: 200.0 mg/kg/injection, schedule: Q04DX003 (ip), vehicle: saline 96 % of control | endpoint: mean survival time, dose: 400.0 mg/kg/injection, schedule: Q04DX003 (ip), vehicle: saline 93 % of control

Cn1c(=O)[nH]c2c(-c3ccccc3)n[nH]c2c1=O
inactive: endpoint: median survival time, dose: 25.0 mg/kg/injection, schedule: Q04DX003 (ip), vehicle: saline with Tween-80 90 % of control | endpoint: median survival time, dose: 100.0 mg/kg/injection, schedule: Q04DX003 (ip), vehicle: saline with Tween-80 90 % of control | endpoint: median survival time, dose: 200.0 mg/kg/injection, schedule: Q04DX003 (ip), vehicle: saline with Tween-80 90 % of control

O=C1OC(=O)C2C3CC(C(Br)C3Br)C12 (configuration not stated)
inactive: [10] 97 % of control | [6] 106 % of control | [11] 98 % of control | endpoint: mean survival time, dose: 200.0 mg/kg/injection, schedule: Q01DX009 (ip), vehicle: saline with Tween-80 104 % of control | [12] 97 % of control | endpoint: mean survival time, dose: 400.0 mg/kg/injection, schedule: Q01DX009 (ip), vehicle: saline with Tween-80 101 % of control

[Cl][Pt+2][Cl].[NH-]c1ccc(C(=O)c2ccccc2)cc1[NH-]
inactive: endpoint: mean survival time, dose: 2.5 mg/kg/injection, schedule: Q01DX009 (ip), vehicle: saline with Tween-80 105 % of control | [1] 105 % of control | [2] 106 % of control | [3] 100 % of control and 106 % of control | endpoint: mean survival time, dose: 40.0 mg/kg/injection, schedule: Q01DX009 (ip), vehicle: saline with Tween-80 102 % of control and 105 % of control | endpoint: mean survival time, dose: 80.0 mg/kg/injection, schedule: Q01DX009 (ip), vehicle: saline with Tween-80 101 % of control | endpoint: mean survival time, dose: 160.0 mg/kg/injection, schedule: Q01DX009 (ip), vehicle: saline with Tween-80 100 % of control | endpoint: mean survival time, dose: 320.0 mg/kg/injection, schedule: Q01DX009 (ip), vehicle: saline with Tween-80 100 % of control

CC(Sc1ccccc1)C(=O)O (configuration not stated)
inactive: [10] 98 % of control | [11] 102 % of control | [12] 98 % of control
